The source of these data is publication PMC5615061, “Discovery of a Low Toxicity O-GlcNAc Transferase (OGT) Inhibitor by Structure-based Virtual Screening of Natural Products” (Scientific Reports, 2017).

By IC50 is commonly meant the midpoint of a concentration-inhibition curve. A high value points to weaker potency in that assay.

Where two headings read alike, the source gives them in different places.

The target of this test is T1, OGT (O-GlcNAc transferase) (Homo sapiens, UniProt O15294).
T1 construct: full-length OGT, recombinant, purified; plasmid gift of D. J. Vocadlo
T1 sequence (O15294 2-1036 isoform O15294-3): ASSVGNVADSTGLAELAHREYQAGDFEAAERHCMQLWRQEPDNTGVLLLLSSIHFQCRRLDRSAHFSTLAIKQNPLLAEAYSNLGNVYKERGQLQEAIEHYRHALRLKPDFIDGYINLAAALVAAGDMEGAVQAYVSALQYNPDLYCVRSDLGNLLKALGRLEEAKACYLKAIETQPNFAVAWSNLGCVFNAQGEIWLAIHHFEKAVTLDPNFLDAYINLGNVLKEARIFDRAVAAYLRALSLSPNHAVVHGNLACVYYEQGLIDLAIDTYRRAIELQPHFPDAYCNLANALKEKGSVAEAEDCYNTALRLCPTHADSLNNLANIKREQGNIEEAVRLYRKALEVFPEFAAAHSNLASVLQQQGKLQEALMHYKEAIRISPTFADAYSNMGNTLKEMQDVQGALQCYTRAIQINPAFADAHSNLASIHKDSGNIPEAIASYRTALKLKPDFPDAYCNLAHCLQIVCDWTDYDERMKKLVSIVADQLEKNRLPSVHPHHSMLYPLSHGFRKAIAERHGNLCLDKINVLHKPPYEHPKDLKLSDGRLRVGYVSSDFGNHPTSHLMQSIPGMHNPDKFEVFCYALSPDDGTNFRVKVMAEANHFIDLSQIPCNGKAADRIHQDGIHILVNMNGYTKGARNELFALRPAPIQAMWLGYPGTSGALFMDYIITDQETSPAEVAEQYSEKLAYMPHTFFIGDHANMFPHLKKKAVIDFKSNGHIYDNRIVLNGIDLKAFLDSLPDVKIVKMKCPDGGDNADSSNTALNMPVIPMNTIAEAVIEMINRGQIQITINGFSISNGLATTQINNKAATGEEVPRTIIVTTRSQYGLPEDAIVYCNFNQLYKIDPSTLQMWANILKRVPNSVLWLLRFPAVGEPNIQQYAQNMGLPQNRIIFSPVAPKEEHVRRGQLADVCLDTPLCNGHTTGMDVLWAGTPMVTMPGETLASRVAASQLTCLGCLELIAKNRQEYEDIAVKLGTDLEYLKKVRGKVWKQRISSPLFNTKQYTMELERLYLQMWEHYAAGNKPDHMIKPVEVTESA
The test can be described thus: UDP-Glo glycosyltransferase assay, luminescence. The class given is biochemical.

Under “250 nM OGT, 125 μM CKII peptide, 40 μM UDP-GlcNAc, pH 7.4, time-dependent, not fully UDP-GlcNAc competitive”, `O=C1C[C@@H](c2ccc(O)c(-c3c(O)cc(O)c4c3O[C@H](c3ccc(O)cc3)CC4=O)c2)Oc2cc(O)cc(O)c21` [L01] returned an IC50 of 21.8 µM.

With `COc1ccccc1[C@@H](NS(=O)(=O)c1ccc2[nH]c(=O)ccc2c1)C(=O)N(Cc1ccco1)Cc1cccs1` [OSMI-1], the IC50 is 3.5 µM.
